Measured values reported in patent US8039501B2, “Synephrine derivatives useful as anti-inflammatory agents” (Universiteit Gent, priority 2005, dated 2011).
Residues, ends and D or L forms follow the SMILES beside them. *: point of attachment. Cbz = O=C(OCc1ccccc1)*

Legend:
MM1.S cell lines = experiment: Annexin V/PI assay in MM1.S cells; format: cell-based, human; conditions: positive control, FIG. 13
Protocol: 1. […] Procedure: • Human multiple myeloma cell lines L363, U266, MM1.S and MMR.1 are cultured in RPMI 1640 with Glutamax-I, supplemented with 10% FCS, 100 U/ml penicillin and 100 μg/ml streptomycin. Cells are counted and resuspended in fresh medium at a concentration of 1×10^6/ml. Next, 1 ml of cell suspension is transferred to 5 ml culture tubes in the presence of test compounds (DEX, CpdA, CpdA analogues: 10^−7 to 10^−4 M) or vehicle (EtOH) and incubated for 24 or 48 hours at 37° C. • Double-staining of the cells with PI and annexin V is performed according to the instructions of the Annexin V kit (BD Biosciences). • Double-stained cells are analyzed by flow cytometry. […] Graphs are represented as the ratio of early apoptotic cells versus late apoptotic cells (a) or as total % of living cells (b).

MM1.S cell line = experiment: MTT test, cell viability of MM1.S cells; format: cell-based, human; conditions: 10% FCS, FIG. 4A
Protocol: (§1) The MTT test is a standard assay addressing cell toxicity of a compound. It is based on the principle that after 3-4 hours of cell incubation with MTT (3-(4,5-dimethylthiazole-2-yl)-2,5-diphenyl tetrazolium bromide) so-called purple formazan crystals develop in living and early apoptotic cells. Dead cells don't produce formazan crystals.
(§2) Different cell lines were tested. Unless indicated differently, A549 human lung epithelial cells (derived from lung carcinoma) and L929sA murine fibroblast cells were cultured in DMEM with 10% FCS, 100 U/ml penicillin and 100 μg/ml streptomycin. Unless indicated differently, the human multiple myeloma cell lines L363, U266 and MM1.S were cultured in RPMI 1640 with Glutamax-I, supplemented with 10% FCS, 100 U/ml penicillin and 100 μg/ml streptomycin. Cells were seeded at 5000 cells/well (for adherent A549 and L929sA cells) or at 10000 cells/well (for the multiple myeloma lines in suspension) in 96 well plates. Cells were incubated in the presence of the respective synephrine compounds or vehicle (EtOH; for control test) in a final volume of 0.2 ml for 24 or 48 hours at 37° C. Subsequently, 20 μl of MTT solution (5 mg/ml in phosphate-buffered saline) was added to each well. After 4 hours incubation at 37° C., 80 μl of the extraction buffer (10% SDS, 0.01 M HCl) was added. After overnight incubation at room temperature, the optical densities at 590 nm were measured. Results are illustrated in FIGS. 2 to 6 and are expressed as percentage of viable cells as compared to vehicle-treated controls.
(§3) The MTT test was further extended to include alternative synephrine derivatives and a range of multiple myeloma cell lines for which the results are illustrated by FIGS. 3A, 3B and 4A. Human multiple myeloma cell lines L363, U266 and MM1.S were cultured in RPMI 1640 with Glutamax-I, supplemented with 10% FCS, 100 U/ml penicillin and 100 μg/ml streptomycin. Cells were seeded at 10000 cells/well in 96 well plates. Cells were incubated in the presence of test compounds or vehicle in a final volume of 0.2 ml for 24 or 48 hours at 37° C. The test compounds included in the test were the synephrine derivatives CpdA, Naphth, Benz and Isobut, and DEX as a comparative example. Subsequently, 20 μl of MTT solution (5 mg/ml in phosphate-buffered saline) was added to each well. After 4 hours incubation at 37° C., 80 μl of the extraction buffer (10% SDS, 0.01 M HCl) was added. After 48 hours incubation at room temperature, the optical densities at 590 nm were measured. Results are expressed as percentage of viable cells as compared to vehicle-treated controls.

[1] = test system: multiple myeloma cells U266; experiment: MTT test, cell viability of U266 cells; format: cell-based, human; conditions: 10^−4 M, 10% FCS, FIG. 3A; for cytotoxicity at 100 µM: Homo sapiens, U-266, read-out: Block of U266 cell viability / cell killing
Protocol: as §1, §2, §3

[2] = test system: A549 human lung epithelial cells; experiment: MTT test, cell viability of A549 cells; format: cell-based
Protocol: as §1, §2
(§4) In a further MTT test, the activity of the synephrine derivatives on the inhibition of cell viability of non-immune cells was measured. […] Tests were performed for 24 hours and for 48 hours. The results are illustrated by FIGS. 5A and 5B for L929 cells, and by FIGS. 6A and 6B for A549 cells. It was observed that CpdA at 10^−5 M blocked cell viability of L929sA and A549 for not more than 10%.

L363 cell line = experiment: MTT test, cell viability of L363 cells; format: cell-based, human; conditions: 10% FCS, FIG. 3B; for Cell killing of L363 cells: 10^−5 M; for cytotoxicity at 100 µM: Homo sapiens, L-363, read-out: Block of L363 cell viability
Protocol: as §1, §2, §3

B-CLL cells = experiment: Annexin V/PI flow cytometric analysis of apoptosis in ex-vivo cultured B-CLL cells; format: cell-based, human; conditions: 24 hours
Protocol: Blood samples were obtained from B-CLL patients after informed consent according to institutional guidelines. CLL lymphocytes were isolated using Lymphoprep (Nycomed Pharma, Denmark) and re-suspended at a final concentration of 10−30×10^6 cells/ml in RPMI 1640 medium, supplemented with 10% heat-inactivated fetal bovine serum (FBS) (Greiner Bio-one, Wemmel, Belgium), 100 IU/ml penicillin, 100 μg/ml streptomycin, and 0.56 μg/mL fungizone (Gibco BRL, Merelbeke, Belgium). B-CLL cells were cultured in Dulbecco's Modified Eagle Medium (DMEM) (Gibco, Invitrogen Inc.) containing 10% FBS (Gibco, Invitrogen Inc.). For flow cytometric analysis of apoptosis, B-CLL cells were treated with the different compounds for 24 hours, 3×10^5 cells were removed from the culture medium, washed twice with cold PBS, and double stained with annexin V-fluorescein isothiocyanate (FITC) and propidium iodide (PI; Beckman Coulter, Miami, Fla.) in Annexin binding buffer, followed by analysis on a FC500PTM (Beckman Coulter, Nyon, Switzerland) flow cytometer. Flow cytometric data were analyzed using Cytomixs RXP software (Beckman Coulter, Nyon, Switzerland). To avoid non-specific fluorescence from dead cells, live cells were gated using forward and side scatter.
One of the early signs of apoptosis is the translocation of the membrane phospholipid phosphatidylserine from the cytoplasmic interface to the extracellular surface. Annexin V has a high affinity for the phospatidylserine-containing phospholipid bilayers. […] As the plasma membrane becomes increasingly permeable during the later stages of apoptosis, the DNA-binding dye PI can readily move across the cell membrane and bind to cellular DNA, providing a means to detect the loss of membrane integrity through mechanisms including necrosis. Three different cell populations can be observed in cells double-stained with AnnV-FITC and PI. […] Cells that stain with Ann V only are early apoptotic cells. And cells that stain with both AnnV and PI are late apoptotic/necrotic cells. The percentage of AnnV-positive B-CLL cells in the lymphocyte gate were measured by FACS and results were expressed as % apoptotic cells, i.e. sum of early apoptotic (AnnV+, PI−), and late apoptotic/dead cells (AnnV+, PI+). The percent of living cells was normalized to 100% living cells incubated in control medium with 0.1% EtOH. All measurements were made in duplicate and averaged.

[3] = test system: pE-selectin-Luc (E-selectin promoter); experiment: pE-selectin-Luc reporter gene assay in TNF-induced L929sA cells; format: cell-based, mouse; conditions: indicated concentrations, from -2 hours for 8 hours; TNF 2000 IU/ml 6 hours; FIG. 1
From the text: L929sA mouse fibroblast cells were stably transfected with pE-selectine-Luc (also referred to as pELAM-luc) by the calcium phosphate precipitation procedure described by De Bosscher et al. in Proc. Natl. Acad. Sci. USA (1997) 94, 13504-13509. The co-transfected plasmid pPGKβGeobpA, conferring resistance to G418 and expressing constitutive β-galactosidase enzymatic activity, was used as an internal control. L929sA cells were transiently transfected by the DEAE-dextran transfection method described by De Bosscher et al. (cited supra).
Recombinant murine tumor necrosis factor (TNF) was produced according to a method standard in the art. Dexamethasone (hereinafter abbreviated as DEX) commercially available from Sigma, and 2-(4-acetoxyphenyl)-2-chloro-N-methyl-ethylammonium chloride (hereinafter abbreviated as compound A) was synthesized according to Louw et al. in Biochemical Pharmacology (1997) 53, 189-197). A stock solution was prepared in ethanol (for DEX) or DMSO (for both comparative compound A and for the compound of example 6 according to this invention, i.e. 1-[4-(benzoyloxy)phenyl]-2-[(tert-butoxy-carbonyl)-methylamino]ethyl-1H-imidazole-1-carboxylate), aliquoted and stored at −70° C.
Induction was performed in triplicate for each independent experiment, which was carried out at least twice. Induction with DEX, compound A, and for the compound of example 6 according to this invention at 1 μM, 10 μM or respectively any other indicated concentration were performed at −2 hours for a total of 8 hours, while TNF (2000 IU/ml) was added at time point zero and left on the cells for 6 hours. After induction, cells were lysed with a lysis buffer (commercially available from Tropix, Bedford, Massachussets) and samples were assayed according to the manufacturer's instructions (Promega Biotech).
In order to investigate whether the inhibitory effect of compound A or the compound of example 6 according to this invention is directed at the transcriptional level of NF-κB-driven genes, the NF-κB-dependent physiological promoter construct, pE-selectin-Luc stably integrated into L929sA cells, was tested. […] DEX-mediated and compound A-mediated inhibition of TNF-induced gene expression were used as controls (FIG. 1). In the appended figures, NI stands for non-induced (either in presence of solvent controls like ethanol or DMSO).

[4] = MTT test, cell viability of L929sA fibroblasts; format: cell-based, murine; conditions: mouse, L929sA fibroblast cells; 10^−5 M; within 48 hours; FIG. 5B; read-out: Block of L929sA cell viability
Protocol: as §1, §2, §4

[5] = MTT test, cell viability of A549 cells; format: cell-based, human; conditions: human, A549 lung epithelial (carcinoma) cells; 10^−5 M; 48 hours; FIG. 6B; read-out: Block of A549 cell viability
Protocol: as §1, §2, §4

## CC(C)C[C@@H](C=O)NC(=O)[C@H](CC(C)C)NC(=O)[C@H](CC(C)C)NC(=O)OCc1ccccc1 [MG132, reference compound] (Cbz-Leu-Leu-Leu-aldehyde)
MM1.S cell lines
  Apoptosis (Annexin V/PI staining): also mediates apoptosis

## CN(CC(OC(=O)n1ccnc1)c1ccc(OC(=O)c2cccc3ccccc23)cc1)C(=O)OC(C)(C)C (centres unmarked) [Naphth, 1-[4-(1-naphthoyloxy)phenyl]-2-[(tert-butyloxycarbonyl)(methyl)amino]ethyl 1H-imida-zole-1-carboxylate]
MM1.S cell line; 10^−4 M
  Inhibition of MM1.S cell viability: almost completely
MM1.S cell line; 10^−5 M
  Inhibition of MM1.S cell viability: about 35%
[1]
  Block of U266 cell viability / cell killing: 70%
[2]; 10^−4 M, 48 hours, FIG. 6B
  Block of A549 cell viability: 20%
[2]; 10^−5 M, 24 hours, FIG. 6A
  Block of A549 cell viability: about 10%
[2]; 10^−5 M, 48 hours, FIG. 6B
  Block of A549 cell viability: not more than 20%
L363 cell line; 10^−4 M
  Block of L363 cell viability: 90%
L363 cell line
  Cell killing of L363 cells: 40%

## C[C@H]1C[C@@H]2[C@H]([C@@H](O)C[C@@]3(C)[C@H]2CC[C@]3(O)C(=O)COC(=O)CCC(=O)O)[C@@]2(C)C=CC(=O)C=C12 [Solumedrol]
B-CLL cells; 10^−7M
  % apoptotic cells, CLL patient 1: 60%
  % apoptotic cells, CLL patient 2: 34%

## CCCCCC(=O)Oc1ccc(C(O)CN(C)C(=O)OC(C)(C)C)cc1 (centres unmarked) [example 6, 4-{2-[(tert-butoxycarbonyl)(methyl)amino]-1-hydroxyethyl}phenyl hexanoate]
[3]
  Inhibition of TNF-induced gene expression (E-selectin gene induction): observed in a dose-responsive manner

## O=C(O)CCCc1ccc(N(CCCl)CCCl)cc1 [Chlorambucil]
B-CLL cells; 25 · 10^−7M
  % apoptotic cells, CLL patient 1: 51%
  % apoptotic cells, CLL patient 2: 46%

## Nc1nc(F)nc2c1ncn2[C@@H]1O[C@H](CO)[C@@H](O)[C@@H]1O [Fludarabine]
B-CLL cells; 5 · 10^−6M
  % apoptotic cells, CLL patient 1: 56%
  % apoptotic cells, CLL patient 2: 63%

## CC(C)C(=O)Oc1ccc(C(CN(C)C(=O)OC(C)(C)C)OC(=O)n2ccnc2)cc1 (centres unmarked) [Isobut, 1-[4-(isobutanoyloxy)phenyl]-2-[(tert-butoxycarbonyl)-methylamino]ethyl-1H-imidazole-1-carboxylate]
MM1.S cell line; 10^−5 M
  Inhibition of MM1.S cell viability: block cell viability completely
[3]
  Inhibition of TNF-induced gene expression (E-selectin gene induction): effectively inhibit TNF-induced E-selectin gene induction
[1]
  cytotoxicity at 100 µM: 80%
L363 cell line
  Cell killing of L363 cells: 25%
L363 cell line; 10^−4 M
  cytotoxicity at 100 µM: 80%

## CN(CC(OC(=O)n1ccnc1)c1ccc(OC(=O)c2ccccc2)cc1)C(=O)OC(C)(C)C (centres unmarked) [Benz, 1-[4-(benzoyloxy)phenyl]-2-[(tert-butoxycarbonyl)-methylamino]ethyl-1H-imidazole-1-carboxylate]
MM1.S cell line; 10^−5 M
  Inhibition of MM1.S cell viability: block cell viability completely
[4]
  cytotoxicity at 48 h: ≤ 20%
[3]
  Inhibition of TNF-induced gene expression (E-selectin gene induction): effectively inhibit TNF-induced E-selectin gene induction
[1]
  cytotoxicity at 100 µM: 90%
[2]; 10^−5 M, 24 hours, FIG. 6A
  Block of A549 cell viability: not able to block cell viability
[5]
  cytotoxicity at 48 h: 10%
L363 cell line
  Cell killing of L363 cells: 40%
L363 cell line; 10^−4 M
  cytotoxicity at 100 µM: 90%
